Measured values reported in patent US20230041563A1, “N-(1,3,4-OXADIAZOL-2-YL)ARYLCARBOXAMIDES OR SALTS THEREOF, PREPARATION METHODS, HERBICIDAL COMPOSITIONS AND USES THEREOF” (priority 2018, published 2023).

How the values were obtained:
Test in all cases: Weeding effect in post-emergence stage (greenhouse pot spray)
Type in all cases: in vivo
Digitaria sanguinalis = system: Digitaria sanguinalis
Method in brief: (§1)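 Fresh-weight control rate was assessed 3 weeks after post-emergence spray-tower application at doses of 500–15 g a.i./ha, triplicate. Weeds were treated at the 2–3 leaf stage, 2 weeks post-sowing, using acetone solutions with Tween 80 plus 1.5 L/ha methyl oleate emulsifiable concentrate.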

Abutilon theophrasti = system: Abutilon theophrasti
Method in brief: as §1

Echinochloa crusgalli = system: Echinochloa crusgalli
Method in brief: as §1

Stellaria media = conditions: Table 2, dose 500 g a.i./ha
Text: (§2) The activity level criteria for plant damage (i.e., growth control rate) are as follows:
(§3) The above growth control rates are fresh weight control rates.
(§4) Experiment on weeding effect in post-emergence stage: monocotyledonous and dicotyledonous weed seeds (Descurainia sophia, Capsella bursa-pastoris, Abutilon theophrasti, Galium aparine, Stellaria media, Lithospermum arvense, rorippa indica, Alopecurus aequalis, Beckmannia syzigachne, Sclerochloa dura, Phleum paniculatum, Bromus japonicus, Aegilops tauschii, Phalaris arundinacea, Amaranthus retroflexus, Chenopodiaceae, Commelina communis, Sonchus arvensis, convolvulus arvensis, Cirsium setosum, Solanum nigrum, Acalypha australis, Digitaria sanguinalis, Echinochloa crusgalli, Setaria viridis, Setaria glauca, Leptochloa chinensis, Monochoria vaginalis, Sagittaria trifolia, Scirpus juncoides, Cyperus rotundus, Cyperus iria, Cyperus difformis, Fimbristylis, Portulaca oleracea, Xanthium sibiricum, Pharbitis nil) and major crop seeds (wheat, corn, rice, soybean, cotton, oilseed rape, millet, sorghum, potato, sesame, ricinus) were placed in plastic pots filled with soil, then covered with 0.5-2 cm of soil, allowed to grow in a good greenhouse environment. After 2 weeks of sowing, the test plants were treated in the 2 to 3 leaf stage. The tested compounds of the present invention were respectively dissolved in acetone, then added with Tween 80 and 1.5 liter/ha of emulsifiable concentrate of methyl oleate as synergist, diluted with a certain amount of water to obtain a solution with a certain concentration, and sprayed with a spray tower onto the plants. After the application, the plants were cultured for 3 weeks in the greenhouse, and then the experimental results of the weeding were counted. The doses of the used compounds were 500, 250, 125, 60, 15 g a.i./ha, and the averages were obtained by repeating for three times.

Amaranthus retroflexus = system: Amaranthus retroflexus
Text: as §2, §3, §4

SMILES	Digitaria sanguinalis (activity level) (Digitaria sanguinalis; Table 2, dose 500 g a.i./ha)	Abutilion theophrasti (activity level) (Abutilon theophrasti; Table 2, dose 500 g a.i./ha)	Echinochloa crusgah (activity level) (Echinochloa crusgalli; Table 2, dose 500 g a.i./ha)	Stellaria media (activity level) (Stellaria media)	Amaranthus retroflexus (activity level) (Amaranthus retroflexus; Table 2, dose 500 g a.i./ha)	Digitaria sanguinalis (activity level) (Digitaria sanguinalis; Table 2, dose 250 g a.i./ha)	Abutilion theophrasti (activity level) (Abutilon theophrasti; Table 2, dose 250 g a.i./ha)	Echinochloa crusgah (activity level) (Echinochloa crusgalli; Table 2, dose 250 g a.i./ha)	Amaranthus retroflexus (activity level) (Amaranthus retroflexus; Table 2, dose 250 g a.i./ha)	also measured
Cc1nnc(NC(=O)c2ccc(C(F)(F)F)c([S+]([O-])C(C)(C)C)c2F)o1 (stereo not drawn) [Compound 1-137]	5 (Level 5: growth control rate is above 85%)	5 (Level 5: growth control rate is above 85%)	5 (Level 5: growth control rate is above 85%)	5 (Level 5: growth control rate is above 85%)	5 (Level 5: growth control rate is above 85%)					
CC(C)=NOCCSc1c(C(F)(F)F)ccc(C(=O)Nc2nnc(C)o2)c1F [Compound 1-144]		5 (Level 5: growth control rate is above 85%)	5 (Level 5: growth control rate is above 85%)	5 (Level 5: growth control rate is above 85%)	5 (Level 5: growth control rate is above 85%)					
Cc1nnc(NC(=O)c2ccc(C(F)(F)F)c([S+]([O-])CC(C)(C)C)c2F)o1 (stereo not drawn) [Compound 1-392]	5 (Level 5: growth control rate is above 85%)	5 (Level 5: growth control rate is above 85%)	5 (Level 5: growth control rate is above 85%)	5 (Level 5: growth control rate is above 85%)	5 (Level 5: growth control rate is above 85%)					
Cc1nnc(NC(=O)c2ccc(C(F)(F)F)c([S+]([O-])CCCF)c2F)o1 (stereo not drawn) [Compound 1-403]										Digitaria sanguinalis (activity level) (Digitaria sanguinalis; Table 2, dose 125 g a.i./ha): 5 (Level 5: growth control rate is above 85%); Abutilion theophrasti (activity level) (Abutilon theophrasti; Table 2, dose 125 g a.i./ha): 5 (Level 5: growth control rate is above 85%); Echinochloa crusgah (activity level) (Echinochloa crusgalli; Table 2, dose 125 g a.i./ha): 5 (Level 5: growth control rate is above 85%); Amaranthus retroflexus (activity level) (Amaranthus retroflexus; Table 2, dose 125 g a.i./ha): 5 (Level 5: growth control rate is above 85%)
Cc1nnc(NC(=O)c2ccc(C(F)(F)F)c([S+]([O-])CC(C)F)c2F)o1 (stereo not drawn) [Compound 1-404]										Digitaria sanguinalis (activity level) (Digitaria sanguinalis; Table 2, dose 125 g a.i./ha): 5 (Level 5: growth control rate is above 85%); Abutilion theophrasti (activity level) (Abutilon theophrasti; Table 2, dose 125 g a.i./ha): 5 (Level 5: growth control rate is above 85%); Echinochloa crusgah (activity level) (Echinochloa crusgalli; Table 2, dose 125 g a.i./ha): 5 (Level 5: growth control rate is above 85%); Amaranthus retroflexus (activity level) (Amaranthus retroflexus; Table 2, dose 125 g a.i./ha): 5 (Level 5: growth control rate is above 85%)
Cc1nnc(NC(=O)c2ccc(C(F)(F)F)c([S+]([O-])CCCC(F)(F)F)c2F)o1 (stereo not drawn) [Compound 1-411]						5 (Level 5: growth control rate is above 85%)	5 (Level 5: growth control rate is above 85%)	5 (Level 5: growth control rate is above 85%)	5 (Level 5: growth control rate is above 85%)	
Cc1nnc(NC(=O)c2ccc(C(F)(F)F)c([S+]([O-])CCC(F)(F)C(F)(F)F)c2F)o1 (stereo not drawn) [Compound 1-412]						5 (Level 5: growth control rate is above 85%)	5 (Level 5: growth control rate is above 85%)	5 (Level 5: growth control rate is above 85%)	5 (Level 5: growth control rate is above 85%)	
Cc1nnc(NC(=O)c2ccc(C(F)(F)F)c([S+]([O-])CCCCl)c2F)o1 (stereo not drawn) [Compound 1-414]						5 (Level 5: growth control rate is above 85%)	5 (Level 5: growth control rate is above 85%)	5 (Level 5: growth control rate is above 85%)	5 (Level 5: growth control rate is above 85%)	
Cc1nnc(NC(=O)c2ccc(C(F)(F)F)c([S+]([O-])CCC#N)c2F)o1 (stereo not drawn) [Compound 1-427]	5 (Level 5: growth control rate is above 85%)	5 (Level 5: growth control rate is above 85%)	5 (Level 5: growth control rate is above 85%)		5 (Level 5: growth control rate is above 85%)					
Cc1nnc(NC(=O)c2ccc(C(F)(F)F)c([S+]([O-])CCCC#N)c2F)o1 (stereo not drawn) [Compound 1-428]	5 (Level 5: growth control rate is above 85%)	5 (Level 5: growth control rate is above 85%)	5 (Level 5: growth control rate is above 85%)		5 (Level 5: growth control rate is above 85%)					
